From the supplement of paper PMC11451515

Tested on: SEM cells
Test: cell viability relative to DMSO control; higher = less cytotoxic
Conditions: 48 h
In short: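 Viability, reported as a per-plate percentage of DMSO wells with cell-free wells as background, came from CellTiter-Glo One luminescence. Reading took place after 48 h at 37°C. Before that, NOMO1 or SEM (500 cells/well) or P12-Ichikawa (1000 cells/well) leukemia cells, adapted for at least four passages in each medium, were seeded in 1536-well plates (5 μl) and pin-dosed with library compounds in DMSO, 47 μM to 0.79 nM over 11 threefold points.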

[1] = HPLM + 10% dialyzed FBS, 0.000781 µM
[2] = HPLM + 10% dialyzed FBS, 0.00234 µM
[3] = HPLM + 10% dialyzed FBS, 0.00702 µM
[4] = HPLM + 10% dialyzed FBS, 0.0211 µM
[5] = HPLM + 10% dialyzed FBS, 0.0632 µM
[6] = HPLM + 10% dialyzed FBS, 0.19 µM
[7] = HPLM + 10% dialyzed FBS, 0.569 µM
[8] = HPLM + 10% dialyzed FBS, 1.71 µM
[9] = HPLM + 10% dialyzed FBS, 5.12 µM
[10] = HPLM + 10% dialyzed FBS, 15.4 µM
[11] = HPLM + 10% dialyzed FBS, 46.1 µM
[12] = RPMI 5 mM glucose + 10% FBS, 0.000781 µM
[13] = RPMI 5 mM glucose + 10% FBS, 0.00234 µM
[14] = RPMI 5 mM glucose + 10% FBS, 0.00702 µM
[15] = RPMI 5 mM glucose + 10% FBS, 0.0211 µM
[16] = RPMI 5 mM glucose + 10% FBS, 0.0632 µM
[17] = RPMI 5 mM glucose + 10% FBS, 0.19 µM
[18] = RPMI 5 mM glucose + 10% FBS, 0.569 µM
[19] = RPMI 5 mM glucose + 10% FBS, 1.71 µM
[20] = RPMI 5 mM glucose + 10% FBS, 5.12 µM
[21] = RPMI 5 mM glucose + 10% FBS, 15.4 µM
[22] = RPMI 5 mM glucose + 10% FBS, 46.1 µM
[23] = RPMI 5 mM glucose + 10% dialyzed FBS, 0.000781 µM
[24] = RPMI 5 mM glucose + 10% dialyzed FBS, 0.00234 µM
[25] = RPMI 5 mM glucose + 10% dialyzed FBS, 0.00702 µM
[26] = RPMI 5 mM glucose + 10% dialyzed FBS, 0.0211 µM
[27] = RPMI 5 mM glucose + 10% dialyzed FBS, 0.0632 µM
[28] = RPMI 5 mM glucose + 10% dialyzed FBS, 0.19 µM
[29] = RPMI 5 mM glucose + 10% dialyzed FBS, 0.569 µM
[30] = RPMI 5 mM glucose + 10% dialyzed FBS, 1.71 µM
[31] = RPMI 5 mM glucose + 10% dialyzed FBS, 5.12 µM
[32] = RPMI 5 mM glucose + 10% dialyzed FBS, 15.4 µM
[33] = RPMI 5 mM glucose + 10% dialyzed FBS, 46.1 µM

| SMILES | cell viability [1] | cell viability [2] | cell viability [3] | cell viability [4] | cell viability [5] | cell viability [6] | cell viability [7] | cell viability [8] | cell viability [9] | cell viability [10] | cell viability [11] | cell viability [12] | cell viability [13] | cell viability [14] | cell viability [15] | cell viability [16] | cell viability [17] | cell viability [18] | cell viability [19] | cell viability [20] | cell viability [21] | cell viability [22] | cell viability [23] | cell viability [24] | cell viability [25] | cell viability [26] | cell viability [27] | cell viability [28] | cell viability [29] | cell viability [30] | cell viability [31] | cell viability [32] | cell viability [33] |
| --- | --- | --- | --- | --- | --- | --- | --- | --- | --- | --- | --- | --- | --- | --- | --- | --- | --- | --- | --- | --- | --- | --- | --- | --- | --- | --- | --- | --- | --- | --- | --- | --- | --- |
| CC1(C)O[C@@H]2C[C@H]3[C@@H]4CCC5=CC(=O)C=C[C@]5(C)[C@H]4[C@@H](O)C[C@]3(C)[C@]2(C(=O)CO)O1 | 74.9% | 34.7% | 89.1% | 77% | 72.8% | 73.6% | 66.3% | 57.7% | 60.3% | 60.3% | 53.6% | 99.8% | 39.1% | 96.1% | 95.7% | 89.1% | 83.2% | 67.5% | 61.8% | 65.2% | 58.4% | 55.4% | 79.7% | 37.8% | 82.4% | 81.8% | 80% | 88.1% | 68.4% | 51.9% | 53.9% | 49.8% | 53.4% |
| COc1cc2ncnc(Nc3cc(Br)c(O)c(Br)c3)c2cc1OC | 80% | 90.5% | 97.8% | 98.4% | 109% | 101% | 113% | 109% | 104% | 106% | 78% | 112% | 107% | 118% | 121% | 125% | 101% | 131% | 124% | 108% | 102% | 85.6% | 82.8% | 99.2% | 110% | 97.8% | 113% | 99.7% | 103% | 108% | 98.5% | 89.1% | 61.6% |
| C=C(C)[C@H]1Cc2c(ccc3c2O[C@@H]2COc4cc(OC)c(OC)cc4[C@@H]2C3=O)O1 | 96% | 85.9% | 103% | 85.1% | 75.5% | 92.8% | 104% | 94.5% | 57.1% | 22.6% | 14.2% | 79.7% | 94.7% | 89.6% | 108% | 60.1% | 89% | 87.8% | 80.2% | 40.3% | 15.8% | 10% | 101% | 106% | 125% | 106% | 77% | 109% | 91.4% | 86.7% | 40.4% | 23.1% | 13.3% |
| C=CC(=O)N1CCC[C@@H](n2nc(-c3ccc(Oc4ccccc4)cc3)c3c(N)ncnc32)C1 |  |  |  |  |  |  |  |  |  |  |  | 95.1% | 127% | 112% | 99% | 128% | 110% | 102% | 99.7% | 103% | 79.9% | 33.5% |  |  |  |  |  |  |  |  |  |  |  |
| Cc1cc2c(F)c(Oc3ncnn4cc(OC[C@@H](C)O)c(C)c34)ccc2[nH]1 | 107% | 108% | 101% | 102% | 106% | 104% | 88.7% | 83.2% | 70.5% | 38.6% | 26.6% | 117% | 117% | 141% | 124% | 110% | 99.4% | 100% | 85.3% | 77.6% | 39.7% | 26.2% | 87.5% | 92.6% | 103% | 102% | 92.9% | 89.3% | 92.4% | 79.3% | 70.3% | 26% | 13.7% |
| C[C@@H]1[C@H](O)[C@@H](C)/C=C/C=C/C=C/C=C/C=C/C=C/C=C/[C@H](O[C@@H]2O[C@H](C)[C@@H](O)[C@H](N)[C@@H]2O)C[C@@H]2O[C@](O)(C[C@@H](O)C[C@@H](O)[C@H](O)CC[C@@H](O)C[C@@H](O)CC(=O)O[C@H]1C)C[C@H](O)[C@H]2C(=O)O | 105% | 92.1% | 105% | 110% | 110% | 110% | 103% | 114% | 102% | 105% | 125% | 113% | 115% | 110% | 107% | 105% | 112% | 112% | 108% | 104% | 121% | 118% | 110% | 103% | 108% | 93.8% | 114% | 116% | 105% | 108% | 109% | 91.2% | 127% |
| COc1ccc(C(C)=O)c(O)c1 | 93.7% | 98.2% | 110% | 95.1% | 94.2% | 111% | 108% | 112% | 114% | 121% | 112% | 104% | 121% | 118% | 124% | 87.8% | 114% | 121% | 137% | 120% | 118% | 121% | 105% | 92.2% | 118% | 125% | 108% | 126% | 102% | 133% | 132% | 123% | 117% |
| CC(C)C(=O)Nc1ccc([N+](=O)[O-])c(C(F)(F)F)c1 | 103% | 112% | 118% | 129% | 122% | 136% | 131% | 134% | 138% | 130% | 130% | 118% | 115% | 119% | 136% | 124% | 140% | 135% | 128% | 123% | 116% | 121% | 125% | 119% | 133% | 144% | 127% | 146% | 142% | 157% | 146% | 139% | 122% |
